According to PubChem BioAssay (NCI):
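Step 1: Grow cells in 96-well plates. Step 2: Expose to compound for 48 hours at 5 concentrations. Step 3: Interpolate endpoints linearly; if unreached, use highest concentration. Definition used: TGI = concentration required for complete inhibition of growth.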

What was measured:
Assay in all cases: NCI tumour cell line growth inhibition, 48 h
786-0 renal = tested on: 786-0 renal
A498 renal = tested on: A498 renal
A549 NSCLC = tested on: A549 NSCLC
ACHN renal = tested on: ACHN renal
BT-549 breast = tested on: BT-549 breast
CAKI-1 renal = tested on: CAKI-1 renal
CCRF-CEM leukemia = tested on: CCRF-CEM leukemia
COLO 205 colon = tested on: COLO 205 colon
DU-145 prostate = tested on: DU-145 prostate
EKVX NSCLC = tested on: EKVX NSCLC
HCC-2998 colon = tested on: HCC-2998 colon
HCT-116 colon = tested on: HCT-116 colon
HCT-15 colon = tested on: HCT-15 colon
HL-60(TB) leukemia = tested on: HL-60(TB) leukemia
HOP-62 NSCLC = tested on: HOP-62 NSCLC
HOP-92 NSCLC = tested on: HOP-92 NSCLC
HS 578T breast = tested on: HS 578T breast
HT29 colon = tested on: HT29 colon
IGROV1 ovarian = tested on: IGROV1 ovarian
K-562 leukemia = tested on: K-562 leukemia
KM12 colon = tested on: KM12 colon
LOX IMVI melanoma = tested on: LOX IMVI melanoma
M14 melanoma = tested on: M14 melanoma
MALME-3M melanoma = tested on: MALME-3M melanoma
MCF7 breast = tested on: MCF7 breast
MDA-MB-231 breast = tested on: MDA-MB-231 breast
MDA-MB-435 = tested on: MDA-MB-435
MDA-N = tested on: MDA-N
MOLT-4 leukemia = tested on: MOLT-4 leukemia
NCI-H226 lung = tested on: NCI-H226 lung
NCI-H23 lung = tested on: NCI-H23 lung
NCI-H460 lung = tested on: NCI-H460 lung
NCI-H522 lung = tested on: NCI-H522 lung
NCI/ADR-RES ovarian = tested on: NCI/ADR-RES ovarian
OVCAR-3 ovarian = tested on: OVCAR-3 ovarian
OVCAR-4 ovarian = tested on: OVCAR-4 ovarian
OVCAR-5 ovarian = tested on: OVCAR-5 ovarian
OVCAR-8 ovarian = tested on: OVCAR-8 ovarian
PC-3 prostate = tested on: PC-3 prostate
RPMI-8226 leukemia = tested on: RPMI-8226 leukemia
RXF 393 renal = tested on: RXF 393 renal
SF-268 CNS = tested on: SF-268 CNS
SF-295 CNS = tested on: SF-295 CNS
SF-539 CNS = tested on: SF-539 CNS
SK-MEL-2 melanoma = tested on: SK-MEL-2 melanoma
SK-MEL-28 melanoma = tested on: SK-MEL-28 melanoma
SK-MEL-5 melanoma = tested on: SK-MEL-5 melanoma
SK-OV-3 ovarian = tested on: SK-OV-3 ovarian
SN12C renal = tested on: SN12C renal
SNB-19 CNS = tested on: SNB-19 CNS
SNB-75 CNS = tested on: SNB-75 CNS
SR leukemia = tested on: SR leukemia
SW-620 colon = tested on: SW-620 colon
T-47D breast = tested on: T-47D breast
TK-10 renal = tested on: TK-10 renal
U251 CNS = tested on: U251 CNS
UACC-257 melanoma = tested on: UACC-257 melanoma
UACC-62 melanoma = tested on: UACC-62 melanoma
UO-31 renal = tested on: UO-31 renal

## Clc1ccc(OCc2nnc3sc(-c4ccc(-c5ccc(Cl)cc5Cl)o4)nn23)c(Cl)c1
786-0 renal
  TGI: 26.1 µM
A498 renal
  TGI: 33.4 µM
A549 NSCLC
  TGI: 46.8 µM
ACHN renal
  TGI: 45.8 µM
BT-549 breast
  TGI: 50.6 µM
CAKI-1 renal
  TGI: 86.2 µM
CCRF-CEM leukemia
  TGI: 68.2 µM
COLO 205 colon
  TGI: 73.7 µM
DU-145 prostate
  TGI: 66.8 µM
EKVX NSCLC
  TGI: 34.5 µM
HCC-2998 colon
  TGI: 36.6 µM
HCT-116 colon
  TGI: 31.4 µM
HCT-15 colon
  TGI: 49.9 µM
HL-60(TB) leukemia
  TGI: 96.6 µM
HOP-62 NSCLC
  TGI: 31.3 µM
HOP-92 NSCLC
  TGI: 37.4 µM
HS 578T breast
  TGI: 54.5 µM
HT29 colon
  TGI: 51.1 µM
IGROV1 ovarian
  TGI: 35.2 µM
K-562 leukemia
  TGI: 62.7 µM
KM12 colon
  TGI: > 100 µM
LOX IMVI melanoma
  TGI: 36.2 µM
M14 melanoma
  TGI: 76.5 µM
MALME-3M melanoma
  TGI: 39.4 µM
MCF7 breast
  TGI: > 100 µM
MDA-MB-231 breast
  TGI: 33.3 µM
MDA-MB-435
  TGI: > 100 µM
MDA-N
  TGI: 71.3 µM
MOLT-4 leukemia
  TGI: 41.3 µM
NCI-H226 lung
  TGI: 41.5 µM
NCI-H23 lung
  TGI: 54 µM
NCI-H460 lung
  TGI: 55.2 µM
NCI-H522 lung
  TGI: 34.6 µM
NCI/ADR-RES ovarian
  TGI: 45.1 µM
OVCAR-3 ovarian
  TGI: 34 µM
OVCAR-4 ovarian
  TGI: > 100 µM
OVCAR-5 ovarian
  TGI: 49.1 µM
OVCAR-8 ovarian
  TGI: 32.1 µM
PC-3 prostate
  TGI: 33.1 µM
RPMI-8226 leukemia
  TGI: 57.2 µM
RXF 393 renal
  TGI: 30.2 µM
SF-268 CNS
  TGI: 32.5 µM
SF-295 CNS
  TGI: 33.6 µM
SF-539 CNS
  TGI: 32.2 µM
SK-MEL-2 melanoma
  TGI: 32.1 µM
SK-MEL-28 melanoma
  TGI: 60.9 µM
SK-MEL-5 melanoma
  TGI: 44.4 µM
SK-OV-3 ovarian
  TGI: 48.3 µM
SN12C renal
  TGI: 38.9 µM
SNB-19 CNS
  TGI: 56.6 µM
SNB-75 CNS
  TGI: 34.1 µM
SR leukemia
  TGI: 25.5 µM
SW-620 colon
  TGI: > 100 µM
T-47D breast
  TGI: 54.6 µM
TK-10 renal
  TGI: 39.8 µM
U251 CNS
  TGI: 37.5 µM
UACC-257 melanoma
  TGI: 38.2 µM
UACC-62 melanoma
  TGI: > 100 µM
UO-31 renal
  TGI: 44.4 µM
